Measured values as given in patent US20240301409A1, “Chemically Modified Small Activating RNA” (RACTIGEN THERAPEUTICS, priority 2021, published 2024).
Read-outs that look alike come from different tables or passages of the source. Oligonucleotides are written 5' to 3', each unit as a sugar letter and its base; * is a phosphorothioate linkage, no mark a phosphodiester; rarer units and linkages stand in square brackets, end groups in braces. Plain capitals give the bases only. m = 2'-O-methyl; r = 2'-OH (RNA); f = 2'-fluoro

What was measured:
[1] = test system: Rag1-40 target sequence in the 3′ UTR of firefly luciferase, COS-1 cells; test: Analysis of off-target effects (pOff-Target dual luciferase reporter in COS-1 cells); details: lysed 48 hours after transfection, luciferase activity
Description: (§1) A 26 bp fragment comprising the target site of Rag1-40 was cloned in the antisense orientation into the 3′ UTR region of the firefly luciferase gene in a pmirGLO dual luciferase vector. Vector plasmids were co-transfected with the indicated saRNAs into COS-1 cells. Cells were lysed 48 hours after transfection, and the resulting lysates were assessed for luciferase activity. Data represent mean±SD of at least two independent experiments. Dashed line represents comparisons to blank control (top dashed line) and Rag1-40 (bottom dashed line). Values close to the top dashed line indicate no off-target effect.
(§2) A 26 bp fragment comprising the Rag1-40 target sequence was cloned in the antisense orientation into a multiple cloning site (MCS) of the 3′ untranslated region of firefly luciferase of the pmirGLO dual luciferase vector (Promega, Fitchburg, WI), to obtain pOff-Target plasmid. Following E. coli transformation and overnight incubation, plasmids for each construct were prepared by standard method. Each plasmid was transfected into COS-1 monkey kidney epithelial cells using Lipofectamine 3000 (Invitrogen, Carlsbad, CA). Subsequently, saRNA was transfected using RNAiMAX. After 24 hours of incubation, COS-1 cells were lysed with 1× lysis buffer, and luciferase activity was measured using dual luciferase reporter gene assay system (Promega, WI, USA) following manufacturer's instructions.
(§3) To assess the off-target effects of unmodified and modified saRNAs, a sequence complementary to the sense oligonucleotide strand of Rag1-40 was cloned into the 3′UTR region of the luciferase gene in a pmirGLO dual luciferase vector. The vector plasmid was co-transfected with the saRNA into COS-1 cells. Cells were lysed 48 hours after transfection and the resulting lysates were assessed for luciferase activity.

[2] = molecular target: T1, RNase A (Bos taurus, UniProt P61823)
T1 sequence (P61823 27-150): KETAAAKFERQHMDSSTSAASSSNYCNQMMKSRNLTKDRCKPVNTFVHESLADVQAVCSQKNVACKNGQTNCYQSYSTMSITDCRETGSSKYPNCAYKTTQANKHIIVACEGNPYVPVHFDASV
Description: The duplexes obtained at each time point above were each added to 1 μL of 10× loading buffer, and then frozen in liquid nitrogen. After incubation, all samples were detected for the double-stranded RNA by 4% agarose gel electrophoresis, and the content of each duplex was analyzed by Image J software.
The duplexes obtained at each time point indicated above were each added to 1 μL of 10× loading buffer, and then frozen in liquid nitrogen. After incubation, all samples were detected for the double-stranded RNA by 4% agarose gel electrophoresis, and the content of each duplex was analyzed by Image J software.
saRNA (1.5 μL, 10 μM) was incubated at a final concentration of 0.02 mg/mL in PBS in the presence of RNase A (Amresco, OH, USA) at 37° C. for different durations. At the end of the incubation, the mixture was snap frozen in liquid nitrogen to stop nuclease activity. Samples were analyzed on a 4% agarose gel and examined for duplex degradation.
All chemically modified duplexes (Rag1-40-1 to Rag1-40-32) were incubated with 0.02 μg/L of RNase A for different durations (0 to 96 hours). At the end of the incubation, the size and amount of duplexes were detected by agarose gel electrophoresis.

[3] = test system: Rag1-40 target sequence in the 3′ UTR of firefly luciferase, COS-1 cells
Description: as §1, §2, §3

Substance	off-target effect compared to unmodified Rag1-40, in words [1]	degradation of duplex at 96 hours [2]	off-target effect compared to unmodified Rag1-40, in words [3]	time to complete degradation [2] [h]
Rag1-40-21: saRNA duplex: sense mCmCAACUCAUUCUCCAAG*U*C (SEQ ID NO 15); antisense UACUfUGGAGAAfUGAGUfUGG*fC*A (SEQ ID NO 10) (sense CCAACUCAUUCUCCAAGUC; antisense UACUUGGAGAAUGAGUUGGCA; 2'-OMe, 2'-F, phosphorothioates; modified_base (1)..(2) (1,2)=2′-O-methyl(2′-OMe); modified_base (17)..(19) (17,18,19)=phosphorothioate (PS) backbone modification; modified_base (5)..(20) (5,12,17,20)=2′-fluoro; modified_base (19)..(21) (19,20,21)=phosphorothioate (PS) backbone modification)	mitigated or similar off-target effects	–	–	–
Rag1-40-7: saRNA duplex: sense mCmCAACUCAUUCUCCAAGmUmC (SEQ ID NO 5); antisense U*A*fCfUfUGGAGAAfUGAGfUfUGG*fC*A (SEQ ID NO 12) (sense mCmCrArArCrUrCrArUrUrCrUrCrCrArArGmUmC; antisense rU*rA*fCfUfUrGrGrArGrArAfUrGrArGfUfUrGrG*fC*rA)	–	little or no signs of degradation	mitigated or similar off-target effects	–
Rag1-40-30: saRNA duplex: sense fCfCAACUCAUUCUCCAAG*U*C (SEQ ID NO 16); antisense fU*A*fCfUfUGGAGAAfUGAGfUfUGG*fC*A (SEQ ID NO 11) (sense fCfCrArArCrUrCrArUrUrCrUrCrCrArArG*rU*rC; antisense fU*rA*fCfUfUrGrGrArGrArAfUrGrArGfUfUrGrG*fC*rA)	–	little or no signs of degradation	mitigated or similar off-target effects	–
Rag1-40-23: saRNA duplex: sense mCmCAACUCAUUCUCCAAG*U*C (SEQ ID NO 15); antisense U*A*fCfUfUGGAGAAfUGAGfUfUGG*fC*A (SEQ ID NO 12) (sense CCAACUCAUUCUCCAAGUC; antisense UACUUGGAGAAUGAGUUGGCA; 2'-OMe, 2'-F, phosphorothioate modifications; modified_base (1)..(2) (1,2)=2′-O-methyl(2′-OMe); modified_base (17)..(19) (17,18,19)=phosphorothioate (PS) backbone modification; modified_base (2)..(21) (2,3,19,20,21)=phosphorothioate (PS) backbone modification; modified_base (3)..(20) (3,4,5,12,16,17,20)=2′-fluoro)	–	little or no signs of degradation	mitigated or similar off-target effects	–
Rag1-40-22: saRNA duplex: sense mCmCAACUCAUUCUCCAAG*U*C (SEQ ID NO 15); antisense fU*A*fCfUfUGGAGAAfUGAGfUfUGG*fC*A (SEQ ID NO 11) (sense CCAACUCAUUCUCCAAGUC; antisense UACUUGGAGAAUGAGUUGGCA; 2'-OMe, 2'-F, phosphorothioate modifications; modified_base (1)..(2) (1,2)=2′-O-methyl(2′-OMe); modified_base (17)..(19) (17,18,19)=phosphorothioate (PS) backbone modification; modified_base (1)..(21) (1,2,3,19,20,21)=phosphorothioate (PS) backbone modification; modified_base (1)..(20) (1,3,4,5,12,16,17,20)=2′-fluoro)	–	little or no signs of degradation	completely inhibited	–
Rag1-40-4: saRNA duplex: sense mCmCAACUCAUUCUCCAAGmUmC (SEQ ID NO 5); antisense fUACUfUGGAGAAfUGAGUfUGG*fC*A (SEQ ID NO 9) (sense mCmCrArArCrUrCrArUrUrCrUrCrCrArArGmUmC; antisense fUrArCrUfUrGrGrArGrArAfUrGrArGrUfUrGrG*fC*rA)	–	–	completely inhibited	≤ 24
